Test results published in the NIST ThermoML archive (doi:10.1016/j.fluid.2017.11.013).
Values joined by “and” are separate entries in the source; they are usually repeats but may differ in a detail not shown here. Equal entries are not always repeated.

Conditions: Coaxial cylinder method

C=C [ethene]
Conditions | thermal conductivity
285.04 K, 6160 kPa, Fluid (supercritical or subcritical phases) | 0.06936 W/m/K
285.04 K, 6760 kPa, Fluid (supercritical or subcritical phases) | 0.07168 W/m/K
285.04 K, 7250 kPa, Fluid (supercritical or subcritical phases) | 0.07341 W/m/K
285.04 K, 8160 kPa, Fluid (supercritical or subcritical phases) | 0.07598 W/m/K
285.04 K, 9010 kPa, Fluid (supercritical or subcritical phases) | 0.07839 W/m/K
285.04 K, 9690 kPa, Fluid (supercritical or subcritical phases) | 0.0804 W/m/K
285.04 K, 9800 kPa, Fluid (supercritical or subcritical phases) | 0.08072 W/m/K
285.04 K, 9810 kPa, Fluid (supercritical or subcritical phases) | 0.08067 W/m/K
285.04 K, 9830 kPa, Fluid (supercritical or subcritical phases) | 0.0807 W/m/K
285.04 K, 9850 kPa, Fluid (supercritical or subcritical phases) | 0.08058 W/m/K
285.04 K, 9900 kPa, Fluid (supercritical or subcritical phases) | 0.08077 W/m/K
285.04 K, 9920 kPa, Fluid (supercritical or subcritical phases) | 0.08085 W/m/K
285.04 K, 9950 kPa, Fluid (supercritical or subcritical phases) | 0.08076 W/m/K and 0.08065 W/m/K
285.04 K, 10000 kPa, Fluid (supercritical or subcritical phases) | 0.08079 W/m/K
285.04 K, 10180 kPa, Fluid (supercritical or subcritical phases) | 0.08121 W/m/K
285.04 K, 10350 kPa, Fluid (supercritical or subcritical phases) | 0.08166 W/m/K
285.04 K, 10570 kPa, Fluid (supercritical or subcritical phases) | 0.08194 W/m/K
288.24 K, 4580 kPa, Fluid (supercritical or subcritical phases) | 0.03085 W/m/K
288.24 K, 5100 kPa, Fluid (supercritical or subcritical phases) | 0.03767 W/m/K
288.24 K, 5360 kPa, Fluid (supercritical or subcritical phases) | 0.04634 W/m/K
288.24 K, 5510 kPa, Fluid (supercritical or subcritical phases) | 0.05465 W/m/K
288.24 K, 5570 kPa, Fluid (supercritical or subcritical phases) | 0.06007 W/m/K
288.24 K, 5630 kPa, Fluid (supercritical or subcritical phases) | 0.06943 W/m/K
288.24 K, 5680 kPa, Fluid (supercritical or subcritical phases) | 0.07371 W/m/K
288.24 K, 5790 kPa, Fluid (supercritical or subcritical phases) | 0.0746 W/m/K
288.24 K, 5920 kPa, Fluid (supercritical or subcritical phases) | 0.06841 W/m/K
288.24 K, 6000 kPa, Fluid (supercritical or subcritical phases) | 0.06651 W/m/K
288.24 K, 6240 kPa, Fluid (supercritical or subcritical phases) | 0.06542 W/m/K
288.24 K, 6570 kPa, Fluid (supercritical or subcritical phases) | 0.06758 W/m/K
288.24 K, 7140 kPa, Fluid (supercritical or subcritical phases) | 0.06951 W/m/K
294.62 K, 5100 kPa, Fluid (supercritical or subcritical phases) | 0.03346 W/m/K
294.62 K, 5370 kPa, Fluid (supercritical or subcritical phases) | 0.03618 W/m/K
294.62 K, 6200 kPa, Fluid (supercritical or subcritical phases) | 0.05841 W/m/K
294.62 K, 6290 kPa, Fluid (supercritical or subcritical phases) | 0.06125 W/m/K
294.62 K, 6530 kPa, Fluid (supercritical or subcritical phases) | 0.06505 W/m/K
294.62 K, 6690 kPa, Fluid (supercritical or subcritical phases) | 0.066 W/m/K
294.62 K, 6770 kPa, Fluid (supercritical or subcritical phases) | 0.06592 W/m/K
294.62 K, 6870 kPa, Fluid (supercritical or subcritical phases) | 0.06592 W/m/K
294.62 K, 6950 kPa, Fluid (supercritical or subcritical phases) | 0.06591 W/m/K
294.62 K, 7030 kPa, Fluid (supercritical or subcritical phases) | 0.0659 W/m/K
294.62 K, 7130 kPa, Fluid (supercritical or subcritical phases) | 0.06589 W/m/K
294.62 K, 7360 kPa, Fluid (supercritical or subcritical phases) | 0.06665 W/m/K
294.62 K, 7490 kPa, Fluid (supercritical or subcritical phases) | 0.06627 W/m/K
294.62 K, 7670 kPa, Fluid (supercritical or subcritical phases) | 0.06623 W/m/K
294.62 K, 7690 kPa, Fluid (supercritical or subcritical phases) | 0.06625 W/m/K
294.62 K, 8210 kPa, Fluid (supercritical or subcritical phases) | 0.06804 W/m/K
294.62 K, 8570 kPa, Fluid (supercritical or subcritical phases) | 0.06916 W/m/K
294.62 K, 9220 kPa, Fluid (supercritical or subcritical phases) | 0.07111 W/m/K
294.62 K, 9740 kPa, Fluid (supercritical or subcritical phases) | 0.07276 W/m/K
294.62 K, 10280 kPa, Fluid (supercritical or subcritical phases) | 0.07482 W/m/K
294.62 K, 10840 kPa, Fluid (supercritical or subcritical phases) | 0.07574 W/m/K
301.6 K, 1010 kPa, Fluid (supercritical or subcritical phases) | 0.02196 W/m/K
301.6 K, 1900 kPa, Fluid (supercritical or subcritical phases) | 0.02294 W/m/K
301.6 K, 2940 kPa, Fluid (supercritical or subcritical phases) | 0.02469 W/m/K
301.6 K, 3920 kPa, Fluid (supercritical or subcritical phases) | 0.02736 W/m/K
301.6 K, 5010 kPa, Fluid (supercritical or subcritical phases) | 0.03136 W/m/K
301.6 K, 5560 kPa, Fluid (supercritical or subcritical phases) | 0.0359 W/m/K
301.6 K, 5610 kPa, Fluid (supercritical or subcritical phases) | 0.03586 W/m/K
301.6 K, 6120 kPa, Fluid (supercritical or subcritical phases) | 0.0417 W/m/K and 0.04209 W/m/K
301.6 K, 6550 kPa, Fluid (supercritical or subcritical phases) | 0.0488 W/m/K
301.6 K, 6780 kPa, Fluid (supercritical or subcritical phases) | 0.05244 W/m/K
301.6 K, 6930 kPa, Fluid (supercritical or subcritical phases) | 0.05667 W/m/K
301.6 K, 7100 kPa, Fluid (supercritical or subcritical phases) | 0.05988 W/m/K
301.6 K, 7230 kPa, Fluid (supercritical or subcritical phases) | 0.06174 W/m/K
301.6 K, 7400 kPa, Fluid (supercritical or subcritical phases) | 0.06342 W/m/K
301.6 K, 7430 kPa, Fluid (supercritical or subcritical phases) | 0.06371 W/m/K
301.6 K, 7440 kPa, Fluid (supercritical or subcritical phases) | 0.06376 W/m/K
301.6 K, 7460 kPa, Fluid (supercritical or subcritical phases) | 0.06392 W/m/K
301.6 K, 7480 kPa, Fluid (supercritical or subcritical phases) | 0.06395 W/m/K
301.6 K, 7570 kPa, Fluid (supercritical or subcritical phases) | 0.06425 W/m/K
301.6 K, 7680 kPa, Fluid (supercritical or subcritical phases) | 0.06462 W/m/K
301.6 K, 7720 kPa, Fluid (supercritical or subcritical phases) | 0.06482 W/m/K
301.6 K, 7760 kPa, Fluid (supercritical or subcritical phases) | 0.06461 W/m/K
301.6 K, 7800 kPa, Fluid (supercritical or subcritical phases) | 0.06479 W/m/K
301.6 K, 7820 kPa, Fluid (supercritical or subcritical phases) | 0.06483 W/m/K
301.6 K, 7980 kPa, Fluid (supercritical or subcritical phases) | 0.06482 W/m/K
301.6 K, 8360 kPa, Fluid (supercritical or subcritical phases) | 0.0649 W/m/K
301.6 K, 9100 kPa, Fluid (supercritical or subcritical phases) | 0.0668 W/m/K
301.6 K, 10390 kPa, Fluid (supercritical or subcritical phases) | 0.0716 W/m/K
301.6 K, 12800 kPa, Fluid (supercritical or subcritical phases) | 0.07701 W/m/K
301.6 K, 14950 kPa, Fluid (supercritical or subcritical phases) | 0.08151 W/m/K
301.6 K, 18120 kPa, Fluid (supercritical or subcritical phases) | 0.08743 W/m/K
301.6 K, 20700 kPa, Fluid (supercritical or subcritical phases) | 0.09068 W/m/K
301.6 K, 20800 kPa, Fluid (supercritical or subcritical phases) | 0.09075 W/m/K
301.6 K, 25600 kPa, Fluid (supercritical or subcritical phases) | 0.09706 W/m/K
301.6 K, 31800 kPa, Fluid (supercritical or subcritical phases) | 0.1039 W/m/K
301.6 K, 40300 kPa, Fluid (supercritical or subcritical phases) | 0.1138 W/m/K
301.6 K, 45200 kPa, Fluid (supercritical or subcritical phases) | 0.1185 W/m/K
301.6 K, 50400 kPa, Fluid (supercritical or subcritical phases) | 0.1236 W/m/K
301.6 K, 55500 kPa, Fluid (supercritical or subcritical phases) | 0.1283 W/m/K
301.6 K, 59300 kPa, Fluid (supercritical or subcritical phases) | 0.132 W/m/K
301.6 K, 61000 kPa, Fluid (supercritical or subcritical phases) | 0.1337 W/m/K and 0.1336 W/m/K
301.6 K, 62000 kPa, Fluid (supercritical or subcritical phases) | 0.1342 W/m/K
301.6 K, 65000 kPa, Fluid (supercritical or subcritical phases) | 0.1366 W/m/K
301.6 K, 65300 kPa, Fluid (supercritical or subcritical phases) | 0.1372 W/m/K
301.6 K, 65700 kPa, Fluid (supercritical or subcritical phases) | 0.1378 W/m/K
301.6 K, 66000 kPa, Fluid (supercritical or subcritical phases) | 0.1378 W/m/K
301.6 K, 70000 kPa, Fluid (supercritical or subcritical phases) | 0.1414 W/m/K
302.21 K, 101 kPa, Gas | 0.02112 W/m/K
303.1 K, 101 kPa, Gas | 0.0207 W/m/K
425 K, 101 kPa, Gas | 0.0381 W/m/K
425.46 K, 500 kPa, Fluid (supercritical or subcritical phases) | 0.03821 W/m/K
425.46 K, 1000 kPa, Fluid (supercritical or subcritical phases) | 0.03832 W/m/K
425.46 K, 2500 kPa, Fluid (supercritical or subcritical phases) | 0.03937 W/m/K
425.46 K, 5000 kPa, Fluid (supercritical or subcritical phases) | 0.04226 W/m/K
425.46 K, 7300 kPa, Fluid (supercritical or subcritical phases) | 0.04435 W/m/K
425.46 K, 10000 kPa, Fluid (supercritical or subcritical phases) | 0.04845 W/m/K
425.46 K, 12200 kPa, Fluid (supercritical or subcritical phases) | 0.0528 W/m/K
425.46 K, 14600 kPa, Fluid (supercritical or subcritical phases) | 0.05769 W/m/K and 0.05771 W/m/K
425.46 K, 14800 kPa, Fluid (supercritical or subcritical phases) | 0.05814 W/m/K
425.46 K, 20000 kPa, Fluid (supercritical or subcritical phases) | 0.06783 W/m/K
425.46 K, 24900 kPa, Fluid (supercritical or subcritical phases) | 0.07364 W/m/K
425.46 K, 30000 kPa, Fluid (supercritical or subcritical phases) | 0.07726 W/m/K
425.46 K, 40600 kPa, Fluid (supercritical or subcritical phases) | 0.08392 W/m/K
425.46 K, 50500 kPa, Fluid (supercritical or subcritical phases) | 0.0908 W/m/K
425.46 K, 60700 kPa, Fluid (supercritical or subcritical phases) | 0.09875 W/m/K
425.46 K, 70300 kPa, Fluid (supercritical or subcritical phases) | 0.1051 W/m/K
425.46 K, 71800 kPa, Fluid (supercritical or subcritical phases) | 0.1068 W/m/K
425.46 K, 73700 kPa, Fluid (supercritical or subcritical phases) | 0.109 W/m/K
425.46 K, 75000 kPa, Fluid (supercritical or subcritical phases) | 0.1098 W/m/K
425.46 K, 79000 kPa, Fluid (supercritical or subcritical phases) | 0.1119 W/m/K
425.46 K, 81900 kPa, Fluid (supercritical or subcritical phases) | 0.1144 W/m/K
425.46 K, 89500 kPa, Fluid (supercritical or subcritical phases) | 0.1184 W/m/K
425.46 K, 93500 kPa, Fluid (supercritical or subcritical phases) | 0.1214 W/m/K
425.46 K, 97000 kPa, Fluid (supercritical or subcritical phases) | 0.1232 W/m/K
425.46 K, 100000 kPa, Fluid (supercritical or subcritical phases) | 0.1251 W/m/K
425.62 K, 101 kPa, Gas | 0.03809 W/m/K
